The subject of assay [1] is rat bladder smooth muscle. The experiment in a line: Organ bath assay: 80 mM KCl contractile inhibition assay. The procedure: The concentration of each fatty acid was set according to the amount thereof present in a 95% ethanol extract of akamoku (Japan Food Research Laboratories; JFRL quantitative analysis). […] Ethanol was used as a control. As in the example described above, 80 mM KCl, a contraction inducer, was also added to induce contraction. The tension (contractile force) of slices of rat bladder smooth muscle was then measured to evaluate contraction inhibition effects. […]
The maximum concentration of each fatty acid was set according to the amount thereof present in a 95% ethanol extract of akamoku (JFRL quantitative analysis). Concentrations of 7.1 μg/mL EPA, 21.3 μg/mL EPA, 71 μg/mL EPA, 4.7 μg/mL stearidonic acid, 14.1 μg/mL stearidonic acid, and 47 μg/mL stearidonic acid were set. As in the examples described above, 80 mM KCl, a contraction inducer, was also added to induce contraction. The tension (contractile force) of slices of rat bladder smooth muscle was then measured to evaluate contraction inhibition effects.

Assay [2] deals with acetic-acid-induced pollakiuria model rats. The experiment in a line: In vivo assay (cystometry) using acetic-acid-induced pollakiuria model rats. More on the design: species or system rat. The settings on record: 0.5 mg/kg oral (MC solution). The procedure: In this experiment, 0.1% acetic acid diluted with normal saline was directly injected into the bladders of urethane-anesthetized rats to induce bladder hypersensitivity and create model rats having symptoms of acute (or chronic) pollakiuria, and in vivo assays were performed using these acetic-acid-induced pollakiuria model rats. […] In this way, the effects of the 95% ethanol extract of akamoku upon pollakiuric states in rats were investigated.
control (vehicle)=0.5% methyl cellulose (MC); and akamoku extract=50 mg/mL MC solution of akamoku extract.
• Maximum intravesical pressure (voiding pressure) • Base pressure • Threshold pressure • Voiding interval • Volume per void
Using the model rats with symptoms of acute (chronic) pollakiuria created in experiment 13, a 50 mg/mL MC solution of 50% ethanol extract of akamoku was orally administered to the model rats (n=7). In the graphs in FIG. 18, measured parameters are the voiding intervals, volume per void, and voiding frequency per unit of time of the rats, and pollakiuria-symptomatic model rats are compared with control rats receiving 0.5% methyl cellulose (MC) solution. In this way, the effects of the 50% ethanol extract of akamoku upon pollakiuric states in rats are investigated.
Using the model rats with symptoms of acute (chronic) pollakiuria created in experiment 13, a 50 mg/mL aqueous solution of aqueous akamoku extract was orally administered to the model rats. In the graphs in FIG. 19, measured parameters are the voiding intervals, volume per void, and voiding frequency per unit of time of the rats, compared with control rats receiving ultrapure water. In this way, the effects of the aqueous akamoku extract upon pollakiuric states in rats are investigated.
Using the model rats with symptoms of acute (chronic) pollakiuria created in experiment 13, 0.5 mg/kg akamoku-derived fucoxanthin Fx (MC solution) was orally administered to the model rats. […] In the graphs in FIG. 20, measured parameters are the voiding intervals, volume per void, and voiding frequency per unit of time of the rats, compared with control rats receiving 0.5% methyl cellulose (MC) solution.

As for `CC/C=C\C/C=C\C/C=C\C/C=C\CCCCC(=O)O` [stearidonic acid], in assay [1] (47 μg/mL, 80 mM KCl), the “average contraction compared to 100% uninhibited contraction” value amounted to 75.6%. Also, in assay [1] (Rattus norvegicus, 4.7 μg/mL, 80 mM KCl, read-out: average contraction compared to 100% uninhibited contraction), the activity at 4.7 µg/mL amounted to 87.8%. In assay [1] (Rattus norvegicus, 14.1 μg/mL, 80 mM KCl, read-out: average contraction compared to 100% uninhibited contraction), the activity at 14.1 µg/mL was 89.5%. Moreover, the activity at 47 µg/mL in assay [1] (Rattus norvegicus, 47 μg/mL, 80 mM KCl, read-out: average contraction compared to 100% uninhibited contraction) amounted to 68.5%. Further, in assay [1] (fatty acid at amount present in 95% ethanol extract of akamoku (EPA 71 μg/mL, stearidonic acid 47 μg/mL)), the “inhibition of 80 mM KCl contraction” value is on record as “significantly inhibited contraction”.
Consider `CC(=O)O[C@H]1CC(C)(C)C(=C=C/C(C)=C/C=C/C(C)=C/C=C/C=C(C)/C=C/C=C(\C)C(=O)C[C@@]23O[C@]2(C)C[C@@H](O)CC3(C)C)[C@](C)(O)C1` [akamoku-derived fucoxanthin, fucoxanthin], for which, in assay [2], the “improvement in 0.1% acetic-acid-induced pollakiuria” value is on record as “significant improvement”, the “voiding frequency per unit of time” value is listed as “decreased”, the voiding interval entry is listed as “tended to increase” and the volume per void result was “increased”.
Regarding `CCCCC/C=C\C/C=C\C/C=C\C/C=C\CCCC(=O)O` [arachidonic acid], the activity at 44 µg/mL in assay [1] (Rattus norvegicus, 44 μg/mL, 80 mM KCl, read-out: average contraction compared to 100% uninhibited contraction) turned out to be 82%.
For `CC/C=C\C/C=C\C/C=C\CCCCCCCC(=O)O` [α-linolenic acid], the activity at 36 µg/mL in assay [1] (Rattus norvegicus, 36 μg/mL, 80 mM KCl, read-out: average contraction compared to 100% uninhibited contraction) amounted to 86.8%.
As to `CC/C=C\C/C=C\C/C=C\C/C=C\C/C=C\CCCC(=O)O` [EPA, eicosapentaenoic acid], in assay [1] (71 μg/mL, 80 mM KCl), the “average contraction compared to 100% uninhibited contraction” value is 73.3%. The activity at 7.1 µg/mL in assay [1] (Rattus norvegicus, 7.1 μg/mL, 80 mM KCl, read-out: average contraction compared to 100% uninhibited contraction) turned out to be 91.1%. Besides, in assay [1] (Rattus norvegicus, 21.3 μg/mL, 80 mM KCl, read-out: average contraction compared to 100% uninhibited contraction), the activity at 21.3 µg/mL is 87.2%. Also, the activity at 71 µg/mL in assay [1] (Rattus norvegicus, 71 μg/mL, 80 mM KCl, read-out: average contraction compared to 100% uninhibited contraction) came to 78.2%.

The record behind these values is patent publication US20220273007A1, “FUNCTIONAL FOOD FOR PREVENTING OR IMPROVING DYSURIA” (MARUHACHI MURAMATSU, INC., priority 2019, published 2022).
